Experiment [1] has as its target T1, PTPN2 (HiBIT-PTPN2 in 293T.109 cells) (Homo sapiens, UniProt P17706).
T1 construct: expressed in transfected cells; host or cells: 293T.109 (293T WT from ATCC)
T1 sequence (P17706 1-415): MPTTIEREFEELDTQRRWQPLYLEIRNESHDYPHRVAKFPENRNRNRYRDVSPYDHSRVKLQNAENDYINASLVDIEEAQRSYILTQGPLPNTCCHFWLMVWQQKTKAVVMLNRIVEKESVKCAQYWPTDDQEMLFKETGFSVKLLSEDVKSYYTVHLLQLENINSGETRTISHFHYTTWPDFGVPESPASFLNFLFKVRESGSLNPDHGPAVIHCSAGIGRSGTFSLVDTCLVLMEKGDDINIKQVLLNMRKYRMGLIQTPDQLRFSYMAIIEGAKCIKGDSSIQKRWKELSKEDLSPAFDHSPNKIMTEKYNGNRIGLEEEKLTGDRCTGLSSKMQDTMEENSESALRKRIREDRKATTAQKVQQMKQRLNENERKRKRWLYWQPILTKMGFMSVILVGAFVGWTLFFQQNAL
The experiment can be described thus: HiBiT Degradation 293T.109 PTPN2 (Nano-Glo HiBiT Lytic Assay). Type of experiment: cell-based. The conditions noted are these: 24.0 hours. Put shortly:
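Degradation read-out: lytic HiBiT luminescence after 24 h treatment (37 °C, 5% CO2) of 5000 293T cells per well expressing HiBiT-fused PTPN2 from an N-terminal tag. Dosing was 11 points, half-log steps down from 10 μM, in duplicate; vehicle-treated and no-reagent wells served as controls.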

For a further experiment, the target named is T2, PTPN2 (B16F10.4 cells) (Mus musculus, UniProt Q06180).
T2 construct: HiBiT; host or cells: B16F10.4
T2 sequence (Q06180 1-406): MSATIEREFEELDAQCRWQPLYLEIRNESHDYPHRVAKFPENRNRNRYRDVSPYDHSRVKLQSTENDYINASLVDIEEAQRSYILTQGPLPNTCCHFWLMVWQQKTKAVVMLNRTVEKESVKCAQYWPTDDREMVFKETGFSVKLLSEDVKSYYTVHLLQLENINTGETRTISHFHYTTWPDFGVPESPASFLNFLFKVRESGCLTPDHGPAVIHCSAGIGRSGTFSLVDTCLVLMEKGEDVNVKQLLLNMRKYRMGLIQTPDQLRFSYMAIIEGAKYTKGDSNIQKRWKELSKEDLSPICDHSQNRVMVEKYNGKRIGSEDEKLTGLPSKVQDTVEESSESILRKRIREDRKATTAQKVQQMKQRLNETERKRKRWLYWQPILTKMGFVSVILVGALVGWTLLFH
The experiment can be described thus: HiBiT Degradation B16F10.4 PTPN2. Type of experiment: cell-based. Particulars: 24.0 hours.

Each structure is given as a SMILES string. Where “and” joins values, the source holds several entries; their conditions need not be identical. Equal entries are not always repeated.

With `Cn1c(=O)n(C2CCC(=O)NC2=O)c2cccc(C3CCN(C(=O)Nc4cccc(CS(=O)(=O)N5CCC(Nc6cccc(-c7sc(C(=O)O)c(OCC(=O)O)c7Cl)c6)CC5)c4)CC3)c21` (stereo not shown) [Example 52, 3-(carboxymethoxy)-4-chloro-5-[3-[[1-[[3-[[4-[1-(2,6-dioxo-3-piperidyl)-3-methyl-2-oxo-benzimidazol-4-yl]piperidine-1-carbonyl]amino]phenyl]methylsulfonyl]-4-piperidyl]amino]phenyl]thiophene-2-carboxylic acid], the DC50 (in experiment [1]; at PTPN2 (B16F10.4 cells)) was 0.2 to 1 µM in each case.

As for `O=C(O)COc1c(C(=O)O)sc(-c2cccc(N[C@H]3CCN(S(=O)(=O)Cc4cccc(NC(=O)N5CCC(c6ccc7c8c(cccc68)C(=O)N7C6CCC(=O)NC6=O)CC5)c4)C4(CC4)C3)c2)c1Cl` (stereo partly drawn) [Example 229, 3-(carboxymethoxy)-4-chloro-5-(3-(((7S)-4-((3-(4-(1-(2,6-dioxopiperidin-3-yl)-2-oxo-1,2-dihydrobenzo[cd]indol-6-yl)piperidine-1-carboxamido)benzyl)sulfonyl)-4-azaspiro[2.5]octan-7-yl)amino)phenyl)thiophene-2-carboxylic acid], the values for the DC50 (in experiment [1]; on PTPN2 (B16F10.4 cells)) were 0.05 to 0.2 µM and below 0.05 µM, respectively.

On to `CC1(C)C[C@H](Nc2cccc(-c3sc(C(=O)O)c(OCC(=O)O)c3Cl)c2)CCN1S(=O)(=O)Cc1ccc(F)c(NC(=O)[C@H]2[C@@H]3CN(C(=O)CNc4cccc5c4CN(C4CCC(=O)NC4=O)C5=O)C[C@@H]32)c1` (stereo partly drawn) [Example 111, 3-(carboxymethoxy)-4-chloro-5-(3-(((4R)-1-((3-((1R,5S,6r)-3-((2-(2,6-dioxopiperidin-3-yl)-1-oxoisoindolin-4-yl)glycyl)-3-azabicyclo[3.1.0]hexane-6-carboxamido)-4-fluorobenzyl)sulfonyl)-2,2-dimethylpiperidin-4-yl)amino)phenyl)thiophene-2-carboxylic acid], for which the DC50 (usually the concentration at which degradation of the target reaches its halfway point) in experiment [1] was 0.2 to 1 µM; at PTPN2 (B16F10.4 cells), at least 1 µM.

With `CC(C)n1c(=O)n(C2CCC(=O)NC2=O)c2ccc(C3CCN(C(=O)Nc4cccc(CS(=O)(=O)N5CC[C@H](Nc6cccc(-c7sc(C(=O)O)c(OCC(=O)O)c7Cl)c6)CC5(C)C)c4)CC3)cc21` (stereo partly drawn) [Example 87, 3-(carboxymethoxy)-4-chloro-5-[3-[[(4S)-1-[[3-[[4-[1-(2,6-dioxo-3-piperidyl)-3-isopropyl-2-oxo-benzimidazol-5-yl]piperidine-1-carbonyl]amino]phenyl]methylsulfonyl]-2,2-dimethyl-4-piperidyl]amino]phenyl]thiophene-2-carboxylic acid], the DC50 was 0.05 to 0.2 µM in experiment [1]; 0.05 to 0.2 µM and < 0.05 µM on PTPN2 (B16F10.4 cells).

With `CN(C(=O)C1CCN(C(=O)CNc2cccc3c2CN(C2CCC(=O)NC2=O)C3=O)CC1)c1cccc(CS(=O)(=O)N2CC[C@H](Nc3cccc(-c4sc(C(=O)O)c(OCC(=O)O)c4Cl)c3)CC2(C)C)c1` (stereo partly drawn) [Example 67, 3-(carboxymethoxy)-4-chloro-5-(3-(((4S)-1-((3-(1-((2-(2,6-dioxopiperidin-3-yl)-1-oxoisoindolin-4-yl)glycyl)-N-methylpiperidine-4-carboxamido)benzyl)sulfonyl)-2,2-dimethylpiperidin-4-yl)amino)phenyl)thiophene-2-carboxylic acid], the DC50 is 0.2 to 1 µM in experiment [1] and at least 1 µM at PTPN2 (B16F10.4 cells).

As for `Cn1c(=O)n(C2CCC(=O)NC2=O)c2ccc([C@H]3CCN(C(=O)Nc4cccc(CS(=O)(=O)N5CC[C@H](Nc6cccc(-c7sc(C(=O)O)c(OCC(=O)O)c7Cl)c6)CC5(C)C)c4)C[C@@H]3F)cc21` (stereo partly shown) [Example 171], the DC50 (in experiment [1]; on PTPN2 (B16F10.4 cells)) was below 0.05 µM in each case.

For `CC1(C)C[C@@H](Nc2cccc(-c3sc(C(=O)O)c(OCC(=O)O)c3Cl)c2)CCN1S(=O)(=O)Cc1cccc(NC(=O)CCOCCn2cc(CNc3cccc4c3C(=O)N(C3CCC(=O)NC3=O)C4=O)nn2)c1` (stereo partly drawn) [Example 15, 3-(carboxymethoxy)-4-chloro-5-(3-(((4S)-1-((3-(3-(2-(4-(((2-(2,6-dioxopiperidin-3-yl)-1,3-dioxoisoindolin-4-yl)amino)methyl)-1H-1,2,3-triazol-1-yl)ethoxy)propanamido)benzyl)sulfonyl)-2,2-dimethylpiperidin-4-yl)amino)phenyl)thiophene-2-carboxylic acid], the DC50 (in experiment [1]; on PTPN2 (B16F10.4 cells)) was 0.2 to 1 µM in each case.

Turning to `CCn1c(=O)n(C2CCC(=O)NC2=O)c2ccc(C3CCN(C(=O)Nc4cccc(CS(=O)(=O)N5CC[C@H](Nc6cccc(-c7sc(C(=O)O)c(OCC(=O)O)c7Cl)c6)CC5(C)C)c4)CC3)cc21` (stereo partly drawn) [Example 88, 3-(carboxymethoxy)-4-chloro-5-(3-(((4S)-1-((3-(4-(1-(2,6-dioxopiperidin-3-yl)-3-ethyl-2-oxo-2,3-dihydro-1H-benzo[d]imidazol-5-yl)piperidine-1-carboxamido)benzyl)sulfonyl)-2,2-dimethylpiperidin-4-yl)amino)phenyl)thiophene-2-carboxylic acid], the DC50 in experiment [1] was below 0.05 µM; at PTPN2 (B16F10.4 cells), 0.05 to 0.2 µM.

With `CC1(C)C[C@@H](Nc2cccc(-c3sc(C(=O)O)c(OCC(=O)O)c3Cl)c2)CCN1S(=O)(=O)Cc1cccc(NC(=O)CCN2CCC(Oc3cccc4c3CN(C3CCC(=O)NC3=O)C4=O)CC2)c1` (stereo partly shown) [Example 56], the DC50 (in experiment [1]; at PTPN2 (B16F10.4 cells)) was at least 1 µM throughout.

As for `CC(C)n1c(=O)n(C2CCC(=O)NC2=O)c2ccc(C3CCN(CC(=O)Nc4cccc(CS(=O)(=O)N5CC[C@H](Nc6cccc(-c7sc(C(=O)O)c(OCC(=O)O)c7Cl)c6)CC5(C)C)c4)CC3(F)F)cc21` (stereo partly drawn) [Example 176, 3-(carboxymethoxy)-4-chloro-5-[3-[[(4S)-1-[[3-[[2-[4-[1-(2,6-dioxo-3-piperidyl)-3-isopropyl-2-oxo-benzimidazol-5-yl]-3,3-difluoro-1-piperidyl]acetyl]amino]phenyl]methylsulfonyl]-2,2-dimethyl-4-piperidyl]amino]phenyl]thiophene-2-carboxylic acid], the DC50 (in experiment [1]; on PTPN2 (B16F10.4 cells)) was 0.05 to 0.2 µM in each case.

On to `CC1(C)C[C@@H](Nc2cccc(-c3sc(C(=O)O)c(OCC(=O)O)c3Cl)c2)CCN1S(=O)(=O)Cc1cccc(NC(=O)C2CCN(C(=O)CNc3cccc4c3C(=O)N(C3CCC(=O)NC3=O)C4=O)CC2)c1` (stereo partly drawn) [Example 32, 3-(carboxymethoxy)-4-chloro-5-[3-[[(4S)-1-[[3-[[1-[2-[[2-(2,6-dioxo-3-piperidyl)-1,3-dioxo-isoindolin-4-yl]amino]acetyl]piperidine-4-carbonyl]amino]phenyl]methylsulfonyl]-2,2-dimethyl-4-piperidyl]amino]phenyl]thiophene-2-carboxylic acid], for which the DC50 lay within 0.05 to 0.2 µM in experiment [1] and 0.2 to 1 µM on PTPN2 (B16F10.4 cells).

For the compound `Cn1c(=O)n(C2CCC(=O)NC2=O)c2ccc(C3CCN(C(=O)Nc4cccc(CS(=O)(=O)N5CC[C@H](Nc6cccc(-c7sc(C(=O)O)c(OCC(=O)O)c7Cl)c6)CC5(C)C)c4F)CC3)cc21` (stereo partly drawn) [Example 125, 3-(carboxymethoxy)-4-chloro-5-[3-[[(4S)-1-[[3-[[4-[1-(2,6-dioxo-3-piperidyl)-3-methyl-2-oxo-benzimidazol-5-yl]piperidine-1-carbonyl]amino]-2-fluoro-phenyl]methylsulfonyl]-2,2-dimethyl-4-piperidyl]amino]phenyl]thiophene-2-carboxylic acid], the DC50 in experiment [1] was 0.05 to 0.2 µM; at PTPN2 (B16F10.4 cells), below 0.05 µM.

On to `O=C(O)COc1c(C(=O)O)sc(-c2cccc(NC3CCN(S(=O)(=O)Cc4cccc(NC(=O)CCOCCNC(=O)CNc5ccc6c(c5)C(=O)N(C5CCC(=O)NC5=O)C6=O)c4)CC3)c2)c1Cl` (stereo not shown) [Example 24, 3-(carboxymethoxy)-4-chloro-5-[3-[[1-[[3-[3-[2-[[2-[[2-(2,6-dioxo-3-piperidyl)-1,3-dioxo-isoindolin-5-yl]amino]acetyl]amino]ethoxy]propanoylamino]phenyl]methylsulfonyl]-4-piperidyl]amino]phenyl]thiophene-2-carboxylic acid], for which the DC50 is 0.2 to 1 µM in experiment [1] and at least 1 µM on PTPN2 (B16F10.4 cells).

In the case of `CC1(C)C[C@@H](Nc2cccc(-c3sc(C(=O)O)c(OCC(=O)O)c3Cl)c2)CCN1S(=O)(=O)Cc1cccc(N2CCN(C3CCN(c4ccc5c6c(cccc46)C(=O)N5C4CCC(=O)NC4=O)CC3)C2=O)c1` (stereo partly drawn) [Example 189, 3-(carboxymethoxy)-4-chloro-5-(3-(((4S)-1-((3-(3-(1-(1-(2,6-dioxopiperidin-3-yl)-2-oxo-1,2-dihydrobenzo[cd]indol-6-yl)piperidin-4-yl)-2-oxoimidazolidin-1-yl)benzyl)sulfonyl)-2,2-dimethylpiperidin-4-yl)amino)phenyl)thiophene-2-carboxylic acid], the DC50 (in experiment [1]; on PTPN2 (B16F10.4 cells)) was below 0.05 µM in each case.

The values above are taken from patent US20250302815A1, “PROTEIN TYROSINE PHOSPHATASE TARGETING LIGANDS” (CALICO LIFE SCIENCES LLC, priority 2021, published 2025).
